Key:
Format in all cases: in vivo
[1] = system: Abuthilon theophrasti (ABUTH); assay: Post-emergence action, greenhouse pot test, visual scoring: ABUTH
Description: (§1) Seeds or rhizome pieces of mono- and dicotyledonous harmful and useful plants were placed in peat pots (diameter 4 cm) filled with sandy loam and then covered with soil. The pots were kept in a greenhouse under optimum conditions. In addition, harmful plants encountered in paddy rice cultivation were cultivated in pots with a water level 2 cm above the soil surface.
(§2) About three weeks after the start of the cultivation, the test plants were treated at the 2- to 3-leaf stage. The herbicides, formulated as powder or liquid concentrates, were, either alone or in the combinations according to the invention, sprayed in various dosages on to the green parts of the plants using an application rate of 600 l of water/ha (converted). For further cultivation of the plants, the pots were then again kept under optimum conditions in a greenhouse.
(§3) The visual scoring of the herbicidal effects was carried out in intervals up to 21 days after the treatment. Scoring was carried out in percent in comparison to the untreated control plants. 0%=no herbicidal activity, 100%=complete herbicidal activity=complete kill.
(§4) The percentages from the treatments with the herbicides alone (=individual application) and with the combinations according to the invention (=mixtures) were employed to calculate interactions using the method of Colby. When the observed efficacies of the mixtures exceed the formal sum of the values of the tests with individual applications, they also exceed the expected value according to Colby, which is calculated using the formula below (cf. S. R. Colby; in Weeds 15 (1967) pp. 20 to 22):
(§5) Here: • A, B=activity of components A and B in percent at a dosage of a and b g of ai/ha (=gramm of active substance per hectare), respectively. • E=expected value in % at a dosage of a+b g of ai/ha.
(§6) The combinations according to the invention of herbicides from group (A) with herbicides from group (B) were tested on a broad spectrum of important harmful plants (weed grasses, broad-leaved weeds/Cyperaceae) and useful plants: Triticum aestivum (TRZAS), Stellaria media (STEME), Lolium multiflorum (LOLMU), Veronica persica (VERPE), Alopecurus myosuroides (ALOMY), Matricaria inodora (MATIN), Brassica napus (BRSNW), Viola tricolor (VIOTR), Avena fatua (AVEFA), Amaranthus retroflexus (AMARE), Zea mays (ZEAMX), Pharbitis purpurea (PHBPU), Setaria viridis (SETVI), Fallopia (ex Polygonum) convolvulus (POLCO), Echinochloa crusgaffi (ECHCG), Abuthilon theophrasti (ABUTH), Cyperus esculentus (CYPES), Oryza sativa (ORYSA).
(§7) Of particular interest are the results shown in the tables (Tab.) below, where the following key is used: • (1) EPPO code (former Bayer code) for the treated plant (see above) • (2) Time of scoring: DAT (days after treatment) • (3) Component A tested (identifying number) • (4) Component B tested (identifying number) • (5) Dosage component A [g of ai/ha] • (6) Dosage component B [g of ai/ha] • (7) % activity found • (8) E value (calculated according to Colby; see above) • (9) Comments: “SYNERGY” =synergistic interaction (E value<% activity found); “SAFENING”=safener action on useful plant (E value>% activity found)

Veronica persica (VERPE) = assay: Post-emergence action, greenhouse pot test, visual scoring: VERPE
Description: as §1, §2, §3, §4, §5, §6, §7

[2] = system: Cyperus esculentus (CYPES); assay: Post-emergence action, greenhouse pot test, visual scoring: CYPES
Description: as §1, §2, §3, §4, §5

[3] = system: Matricaria inodora (MATIN); assay: Post-emergence action, greenhouse pot test, visual scoring: MATIN
Description: as §1, §2, §3, §4, §5

[4] = system: Triticum aestivum (TRZAS); assay: Post-emergence action, greenhouse pot test, visual scoring: TRZAS
Description: as §1, §2, §3, §4, §5, §6, §7

Avena fatua (AVEFA) = assay: Post-emergence action, greenhouse pot test, visual scoring: AVEFA; settings: 21 DAT
Description: as §1, §2, §3, §4, §5, §6, §7

Stellaria media (STEME) = assay: Post-emergence action, greenhouse pot test, visual scoring: STEME; settings: 10 DAT
Description: as §1, §2, §3, §4, §5, §6, §7

[5] = system: Lolium multiflorum (LOLMU); assay: Post-emergence action, greenhouse pot test, visual scoring: LOLMU; settings: for (7) % activity found: 21 DAT
Description: as §1, §2, §3, §4, §5, §6, §7

Zea mays (ZEAMX) = assay: Post-emergence action, greenhouse pot test, visual scoring: ZEAMX
Description: as §1, §2, §3, §4, §5, §6, §7

Viola tricolor (VIOTR) = assay: Post-emergence action, greenhouse pot test, visual scoring: VIOTR; settings: rate (5) 4
Description: as §1, §2, §3, §4, §5, §6, §7

Setaria viridis (SETVI) = assay: Post-emergence action, greenhouse pot test, visual scoring: SETVI; settings: 21 DAT
Description: as §1, §2, §3, §4, §5, §6, §7

[6] = system: Pharbitis purpurea (PHBPU); assay: Post-emergence action, greenhouse pot test, visual scoring: PHBPU
Description: as §1, §2, §3, §4, §5, §6, §7

Oryza sativa (ORYSA) = assay: Post-emergence action, greenhouse pot test, visual scoring: ORYSA
Description: as §1, §2, §3, §4, §5, §6, §7

[7] = system: Fallopia (ex Polygonum) convolvulus (POLCO); assay: Post-emergence action, greenhouse pot test, visual scoring: POLCO; settings: 21 DAT
Description: as §1, §2, §3, §4, §5, §6, §7

[8] = system: Echinochloa crusgaffi (ECHCG); assay: Post-emergence action, greenhouse pot test, visual scoring: ECHCG; settings: for % activity found: 21 DAT
Description: as §1, §2, §3, §4, §5, §6, §7

[9] = system: Alopecurus myosuroides (ALOMY); assay: Post-emergence action, greenhouse pot test, visual scoring: ALOMY; settings: 21 DAT
Description: as §1, §2, §3, §4, §5

[10] = system: Amaranthus retroflexus (AMARE); assay: Post-emergence action, greenhouse pot test, visual scoring: AMARE
Description: as §1, §2, §3, §4, §5

COc1nc(OC)nc(C(=O)c2cccc(F)c2N(C)S(=O)(=O)C(F)F)n1 [A-1]
70%: (7) % activity found ([2]; 10 DAT, rate (5) 4) | (7) % activity found ([2]; 10 DAT, rate (5) 12) | % activity found ([3]; 10 DAT, A 12 g of ai/ha) | % activity found (Stellaria media (STEME); dose (5) 4) | % activity found (Stellaria media (STEME); dose (5) 12) | (7) % activity found ([7]; rate (5) 12) | (7) % activity found ([8]; 10 DAT, rate (5) 12)
0%: (7) % activity found ([4]; 10 DAT, rate (5) 4) | (7) % activity found ([4]; 10 DAT, rate (5) 12) | (7) % activity found ([4]; 21 DAT, rate (5) 4) | (7) % activity found ([4]; 21 DAT, rate (5) 12) | (7) % activity found ([5]; rate (5) 4) | (7) % activity found (Zea mays (ZEAMX); 10 DAT, rate (5) 4) | (7) % activity found (Zea mays (ZEAMX); 10 DAT, rate (5) 12) | (7) % activity found (Zea mays (ZEAMX); 21 DAT, rate (5) 12) | (7) % activity found (Viola tricolor (VIOTR); 21 DAT) | (7) % activity found (Setaria viridis (SETVI); rate (5) 4) | (7) % activity found (Oryza sativa (ORYSA); 21 DAT, rate (5) 4)
10%: (7) % activity found (Avena fatua (AVEFA); rate (5) 4) | (7) % activity found ([5]; rate (5) 12) | (7) % activity found (Oryza sativa (ORYSA); 10 DAT, rate (5) 4) | (7) % activity found (Oryza sativa (ORYSA); 10 DAT, rate (5) 12) | (7) % activity found (Oryza sativa (ORYSA); 21 DAT, rate (5) 12)
40%: (7) % activity found (Veronica persica (VERPE); 21 DAT, rate (5) 12) | (7) % activity found ([9]; rate (5) 4)
30%: (7) % activity found (Veronica persica (VERPE); 21 DAT, rate (5) 4) | (7) % activity found (Avena fatua (AVEFA); rate (5) 12)
75%: (7) % activity found ([7]; rate (5) 4)
80%: (7) % activity found ([2]; 21 DAT, rate (5) 4) | (7) % activity found ([2]; 21 DAT, rate (5) 12)
60%: % activity found ([6]; 10 DAT, dose (5) 4) | % activity found ([6]; 21 DAT, dose (5) 4)
65%: (7) % activity found ([6]; 21 DAT, rate (5) 12)
50%: (7) % activity found ([9]; rate (5) 12)
20%: (7) % activity found (Viola tricolor (VIOTR); 10 DAT) | (7) % activity found (Setaria viridis (SETVI); rate (5) 12)
85%: % activity found ([1]; 21 DAT, dose (5) 4) | % activity found ([1]; 21 DAT, dose (5) 12) | % activity found ([8]; dose (5) 4)

CCSC(=O)N1CCCCCC1 [B6-7, S-ethyl hexahydro-1H-azepine-1-carbothioate]
0%: % activity found ([1]; 10 DAT, dose (6) 300) | % activity found ([1]; 10 DAT, dose (6) 900) | % activity found (Veronica persica (VERPE); 10 DAT, dose (6) 900) | % activity found (Veronica persica (VERPE); 21 DAT, dose (6) 300) | % activity found (Avena fatua (AVEFA); dose (6) 300) | % activity found (Stellaria media (STEME); dose (6) 300) | % activity found (Stellaria media (STEME); dose (6) 900) | % activity found ([6]; 10 DAT, dose (6) 300) | % activity found ([6]; 10 DAT, dose (6) 900) | % activity found ([6]; 21 DAT, dose (6) 300) | % activity found ([6]; 21 DAT, dose (6) 900) | % activity found ([7]; dose (6) 300) | % activity found ([7]; dose (6) 900) | % activity found ([8]; dose (6) 300) | % activity found ([8]; dose (6) 900) | % activity found ([10]; 10 DAT, dose (6) 300) | % activity found ([10]; 10 DAT, dose (6) 900) | % activity found ([10]; 21 DAT, dose (6) 300) | % activity found ([10]; 21 DAT, dose (6) 900)
20%: % activity found ([3]; 10 DAT, dose (6) 900) | % activity found ([5]; 10 DAT, dose (6) 900)
30%: % activity found ([3]; 21 DAT, dose (6) 300) | % activity found ([3]; 21 DAT, dose (6) 900)

From patent publication US20100099564A1, “HERBICIDE COMBINATION COMPRISING DIMETHOXYTRIAZINYL-SUBSTITUTED DIFLUOROMETHANESULFONYLANILIDES” (BAYER CROPSCIENCE AG, priority 2008, published 2010)
